Laboratory results published in patent publication US20230398243A1, “THERAPEUTIC, RADIOLABELED NANOPARTICLES AND METHODS OF USE THEREOF” (The General Hospital Corporation, priority 2020, published 2023).

System: MDA-MB-231-luc-D3H2LN cell line
Experiment: tumor cell apoptosis, proliferation, invasion, migration and cell cycle
Assay type: cell-based, human
Settings: low-dose doxorubicin
Excerpt: 21.6±0.5-nm dextran coated magnetic nanoparticles were conjugated to 8±0.7 LNA antagomirs targeting miRNA-10b, (Exiqon, Woburn, MA) (FIG. 1A). The MN-anti-miR10b therapeutic was functional in the human lymph-node metastatic MDA-MB-231-luc-D3H2LN cell line (Perkin Elmer, Hopkinton MA). […] In order to assess the therapeutic potential of this methodology, the effect of miR-10b inhibition on tumor cell apoptosis, proliferation, invasion and migration was investigated.
It was also hypothesized that by co-administering a low dose of a cytotoxic chemotherapeutic (e.g., doxorubicin), the effectiveness of the therapeutic could be amplified, leading not only to inhibition of tumor growth, but regression and, possibly, elimination of metastasis. […] Further proof for this hypothesis came from experiments in which we attempted to generate a miR-10b knock-out subline derived from the MDA-MB-231-luc-D3H2LN cell line (FIG. 3A). We observed that within 24 h of transfection with the knock-out vector set (TALEN5 L+R), the cells acquired a spindle-shaped conformation and began to detach. By 72 h of transfection, there were no viable cells (FIG. 3B).

## COc1cccc2c1C(=O)c1c(O)c3c(c(O)c1C2=O)C[C@@](O)(C(=O)CO)C[C@@H]3O[C@H]1C[C@H](N)[C@H](O)[C@H](C)O1 [doxorubicin]
  effect on the cell cycle (flow cytometry): induced polyploidy and G2/M arrest
